# Patent publication US20100284925A1, “Small Molecule Intervention for Obesity” (priority 2006, published 2010)
# Entries after “also recorded” stand apart in the source; their conditions may differ.
# Columns and labels:
# NIH-3T3/L1 preadipocytes = test: Differentiation of NIH-3T3/L1 preadipocytes into adipocytes (oil red O or Nile Red staining); assay type: cell-based
# Description: FIG. 7. […] NIH-3T3/L1 cells were induced into differentiation and simultaneously treated with 2 μM of prieurianin. Differentiated cells were stained with oil red O—FIG. 7A, undifferentiated control.
# Histogram represents A510 nm absorbance of oil red O stain isopropanol extracts from cells. Results are means±S.E. of triplicate experiments.
# (§1) FIG. 19. Effects of bufalin on preadipocyte differentiation, and dedifferentiation/delipidation in adipo-cytes. NIH-3T3/L1 cells were induced into differentiation and simultaneously treated with either 1 μM of bufalin or 2 μM of prieurianin. Differentiated cells were stained with Nile Red. Alternatively, preadipocytes were induced into differentiation and five days following differentiation, cells were treated with either 1 μM of bufalin or 2 μM of prieurianin for an additional five days and followed by staining with Nile Red. Stained cells were evaluated by fluorescence microscopy.
# To determine the effects of prieurianin on the differentiation of preadipocytes to adipocytes, the NIH-3T3/L1 preadipocytes were treated with or without the drug at the same time when induction of differentiation was initiated.
# PLTP promoter = test: PLTP-promoter luciferase reporter in HepG2 and transgenic HepG2/PLTPpLuc cells; assay type: cell-based, human; conditions: for effect on transactivation of PLTP promoter by prieurianin: co-treatment with prieurianin, 200 nM staurosporine or 200 nM TSA; for transactivation of PLTP promoter: luciferase reporter, HepG2 or HepG2/PLTPpLuc cells
# Description: FIG. 2A. A 1.5 Kb PLTP promoter fused to a luciferase reporter was transactivated by topotecan dose-dependently.
# FIG. 2B. Activation of PLTP promoter by topotecan in HepG2 transgenic cells containing the PLTP-promoter luciferase reporter gene fused to the neomycin selectable marker cassette and stably transfected into HepG2 cells to generate the transgenic line (Top panel). Dose-dependent induction of PLTP promoter by topotecan (Bottom panel). Results are the means S.E. of three experiments after normalization with Renilla luciferase.
# FIG. 3A. Dose-dependent transactivation of the PLTP promoter by prieurianin in the HepG2 transgenic cells. Results are the means S.E. of three experiments after normalization with Renilla luciferase.
# FIG. 3B. […] 1, Control; 2. […] Results are the means±S.E. of triplicate experiments.
# FIG. 11. Transactivation of PLTP promoter by cytotoxic and non-cytotoxic drugs. Survey of transactivation of the PLTP promoter by various cytotoxic and non-cytotoxic drugs in the HepG2 transgenic cells was conducted. Results are the means S.E. of three experiments.
# FIG. 12. Effects of trichostatin A (TSA) on transactivation of PLTP promoter by prieurianin. Dose response activation of PLTP promoter by prieurianin either in the presence or the absence of 200 nM TSA. Results are the means S.E. of three experiments.
# To determine whether non-cytotoxic small molecules could induce PLTP expression, the inventor herein subcloned the PLTP-promoter luciferase reporter into a vector containing a neomycin (G418)-resistance selectable marker and generated a transgenic HepG2 cell line, which harbors the PLTP-promoter luciferase reporter, by stable gene transfection and selection with G418.
# The transgenic cells were then screened with a library of small molecules derived from natural products.
# PLTP [1] = test: PLTP release into conditioned media (Western blot); assay type: cell-based
# Description: (§2) FIG. 10. Release of adiponectin and PLTP by preadipocytes and adipocytes, and in serum of normal mice. Preadipocytes (B and D) were treated with 2 μM of prieurianin and media collected after 36 hrs for Western blot analysis of either adiponectin (A and B) or PLTP (C and D). Alternatively, five days following differentiation, conditioned media of adipocyets (A and C) were collected for Western analysis. E. Serum of normal C57BL/6J mice given prieurianin or topotecan (0, 2, 5, and 10 mg/kg) was analyzed by Western blot for PLTP.
# The expression and secretion of PLTP by preadipocytes and adipocytes was also assessed. Thus, preadipocytes produced and released both the low and the high molecular weight forms of PLTP, while adipocytes secreted only the low molecular weight form (see FIGS. 10C and 10D) into the conditioned media.
# [2] = test system: phospholipid transfer protein (PLTP) gene expression; test: PLTP gene expression in HepG2 cells by DNA microarray and Northern blot; assay type: cell-based, human
# Description: The patent or application file contains at least one drawing executed in color. Copies of this patent with color drawings will be provided by the United States Patent and Trademark Office upon request and payment of necessary fee. FIG. 1. Pharmacological response of HepG2 cells to topotecan by DNA Microarray. HepG2 cells were treated with 500 nM for various times (A) or with various concentrations of topotecan (B) for 24 hrs. Dendrogram of the expression changes of the phospholipid transfer protein (PLTP) is shown. (C) Induction of PLTP expression by topotecan was confirmed independently by Northern blot analysis.
# The mechanisms of resistance to topoisomerase (Top) 1 inhibitors by expression genomics were studied by conducting time-course and dose-response experiments by DNA microarray to investigate the pharmacological response of the human hepatocellular blastoma HepG2 cells to topotecan, which were either treated with 500 nM of topotecan (a cytotoxic anticancer agent) for various times (0, 1, 3, 5, 10, 15, and 24 hrs), or with various doses of topotecan (0, 10, 50, 100, 300, 500, and 1000 nM) for 24 hrs.
# Activation of PLTP expression by topotecan was temporally regulated and dose dependent, with a late onset, peaking at 24 hrs with an approximately 20-fold induction.
# adiponectin = test: Adiponectin release into conditioned media (Western blot); assay type: cell-based; conditions: NIH-3T3/L1 preadipocytes, approximately 36 hrs after treatment
# Description: as §2
# Adipose tissue contains various types of cells including preadipocytes and adipocytes. Also, preadipocytes secrete factors involved in their own differentiation. Once differentiated, the mature adipocytes acquire the ability to communicate distally with other organs including brain, liver, and skeletal muscle and locally with other cells such as preadipocytes, endothelial cells and monocytes/macrophages by secreting leptin and adiponectin. In addition, anti-adipogenic cytokines prevent the release of adiponectin by preadipocytes. Thus, the production of adiponectin and PLTP by preadipocytes and adipocytes was assessed.
# PLTP [3] = test: Serum PLTP protein by Western blot in normal C57BL/6J mice; assay type: in vivo; conditions: normal C57BL/6J mice, 0, 2, 5 and 10 mg/kg
# Description: as §2
# C/EBPα = C/EBPα response element luciferase reporter in L1 preadipocytes; assay type: cell-based; conditions: prieurianin 2 μM
# Description: (§3) FIG. 18. Effects of prieurianin on C/EBPα and β and PPARγ mediated transcription in adipogenesis. Response elements corresponding to C/EBPα and β and PPARγ are cloned into the pGL3 basic luciferase reporter plasmid. L1 preadipocytes were contransfected with the reporter plasmid either in the presence or the absence of the corresponding transcription factors cloned into expression vector, followed by treatment with 2 μM of prieurianin. Cells were harvested for luciferase assay 15-24 hrs later. Results are means±S.E. of triplicate experiments.
# NFκB = test: NFκB-response element luciferase reporter in L1 preadipocytes; assay type: cell-based; conditions: prieurianin 2 μM
# C/EBPβ = C/EBPβ response element luciferase reporter in L1 preadipocytes; assay type: cell-based; conditions: prieurianin 2 μM
# Description: as §3
# [4] = test system: differentiated NIH-3T3/L1 adipocytes; test: Loss of lipid-positive differentiated adipocytes (oil red O, A510; Nile Red); assay type: cell-based; conditions: 1 μM bufalin, Nile Red
# Description: FIG. 8. Prieurianin induced loss of differentiated adipocytes. NIH-3T3/L1 preadipocytes were induced into differentiation. Five days following differentiation, cells were treated with various concentrations (0.5, 1, and 2 μM) of prieurianin for an additional five days and followed by staining with oil red O. Micrographs were obtained from representatives of triplicate experiments. Isopropanol extracts of positively stained cells were quantified spectrophotometrically at 510 nm as shown in histogram on the right. Results are means±S.E. of triplicate experiments.
# as §1
# To assess whether prieurianin has any effect on the differentiated adipocytes, the preadipocytes were allowed to differentiate into adipocytes and then were further cultured for about five days before treating the adipocytes with prieurianin for an additional five to six days, followed by oil red O staining for the presence of lipid accumulating adipocytes.
# PPARγ = PPARγ response element luciferase reporter in L1 preadipocytes; assay type: cell-based; conditions: prieurianin 2 μM
# Description: as §3
smiles,measurement,setting,value
CN[C@@H]1C[C@H]2O[C@@](C)([C@@H]1OC)n1c3ccccc3c3c4c(c5c6ccccc6n2c5c31)C(=O)NC4 [staurosporine],"differentiation, staurosporine alone",NIH-3T3/L1 preadipocytes; data not shown,no observable effects on differentiation
same,effect on TPA activation of PLTP promoter,PLTP promoter; co-treatment with TPA,abolished
same,effect on transactivation of PLTP promoter by prieurianin,PLTP promoter,strongly inhibited PLTP transactivation by prieurianin; also recorded: inhibited
CC(/C=C/C(=O)NO)=C\[C@@H](C)C(=O)c1ccc(N(C)C)cc1 [trichostatin A],effect on transactivation of PLTP promoter by prieurianin,PLTP promoter,"though modest, potentiated the transactivation of PLTP promoter activity by prieurianin"
"CC[C@@]1(O)C(=O)OCc2c1cc1n(c2=O)Cc2cc3c(CN(C)C)c(O)ccc3nc2-1 [topotecan, reference compound]",release of PLTP by adipocytes,PLTP [1]; adipocytes,induced an increase in the release of only the low molecular weight form of PLTP
same,release of PLTP by preadipocytes,PLTP [1]; preadipocytes,release of the low but not the high molecular form of PLTP was reduced
same,transactivation of PLTP promoter,PLTP promoter,transactivated by topotecan dose dependently
same,PLTP expression by Northern blot analysis,[2]; HepG2 cells,induced by topotecan dose-dependently
same,induction of PLTP expression,"[2]; HepG2 cells, DNA microarray, peaking at 24 hrs",approximately 20 fold
same,onset of PLTP induction following treatment,[2]; time-course microarray analysis,12 to 15 h
same,adiponectin release by preadipocytes,adiponectin,significantly inhibited the production of adiponectin
same,serum PLTP protein levels,PLTP [3],a rise in the serum PLTP protein levels
"C[C@]12CC[C@H](O)C[C@H]1CC[C@@H]1[C@@H]2CC[C@]2(C)[C@@H](c3ccc(=O)oc3)CC[C@]12O [bufalin, reference compound]",differentiation of preadipocytes,"NIH-3T3/L1 preadipocytes; 1 μM bufalin, Nile Red","did not, however, inhibit the differentiation of preadipocytes"
same,transactivation potential of C/EBPα,C/EBPα,nor did it modulate the transcriptional activity
same,transactivation of PLTP promoter,PLTP promoter,stimulates the PLTP promoter like prieurianin
same,NFκB-response element mediated transcription,NFκB,nor did it modulate the transcriptional activity
same,transactivation potential of C/EBPβ,C/EBPβ,nor did it modulate the transcriptional activity
same,de-differentiation or delipidation in adipocytes,[4],neither causes de-differentiation or delipidation in adipocytes
same,transactivation potential of PPARγ,PPARγ,nor did it modulate the transcriptional activity
"CCCCCCCCCCCCCC(=O)O[C@@H]1[C@@H](C)[C@@]2(O)[C@@H](C=C(CO)C[C@]3(O)C(=O)C(C)=C[C@@H]23)[C@@H]2C(C)(C)[C@]12OC(C)=O [TPA, 12-O-tetradecanoylphorbol-13-acetate]",transactivation of PLTP promoter,PLTP promoter,induced PLTP promoter
